Test results published in publication PMC11408249, “Non-invasive in vivo imaging of changes in Collagen III turnover in myocardial fibrosis” (npj Imaging, 2024).

Molecular target: T1, COL3 (Mus musculus, UniProt P08121)
T1 construct: from tissue; host or cells: infarcted left-ventricular myocardium of female CD1 mice, in vivo
T1 sequence (P08121 155-1219 limits assumed): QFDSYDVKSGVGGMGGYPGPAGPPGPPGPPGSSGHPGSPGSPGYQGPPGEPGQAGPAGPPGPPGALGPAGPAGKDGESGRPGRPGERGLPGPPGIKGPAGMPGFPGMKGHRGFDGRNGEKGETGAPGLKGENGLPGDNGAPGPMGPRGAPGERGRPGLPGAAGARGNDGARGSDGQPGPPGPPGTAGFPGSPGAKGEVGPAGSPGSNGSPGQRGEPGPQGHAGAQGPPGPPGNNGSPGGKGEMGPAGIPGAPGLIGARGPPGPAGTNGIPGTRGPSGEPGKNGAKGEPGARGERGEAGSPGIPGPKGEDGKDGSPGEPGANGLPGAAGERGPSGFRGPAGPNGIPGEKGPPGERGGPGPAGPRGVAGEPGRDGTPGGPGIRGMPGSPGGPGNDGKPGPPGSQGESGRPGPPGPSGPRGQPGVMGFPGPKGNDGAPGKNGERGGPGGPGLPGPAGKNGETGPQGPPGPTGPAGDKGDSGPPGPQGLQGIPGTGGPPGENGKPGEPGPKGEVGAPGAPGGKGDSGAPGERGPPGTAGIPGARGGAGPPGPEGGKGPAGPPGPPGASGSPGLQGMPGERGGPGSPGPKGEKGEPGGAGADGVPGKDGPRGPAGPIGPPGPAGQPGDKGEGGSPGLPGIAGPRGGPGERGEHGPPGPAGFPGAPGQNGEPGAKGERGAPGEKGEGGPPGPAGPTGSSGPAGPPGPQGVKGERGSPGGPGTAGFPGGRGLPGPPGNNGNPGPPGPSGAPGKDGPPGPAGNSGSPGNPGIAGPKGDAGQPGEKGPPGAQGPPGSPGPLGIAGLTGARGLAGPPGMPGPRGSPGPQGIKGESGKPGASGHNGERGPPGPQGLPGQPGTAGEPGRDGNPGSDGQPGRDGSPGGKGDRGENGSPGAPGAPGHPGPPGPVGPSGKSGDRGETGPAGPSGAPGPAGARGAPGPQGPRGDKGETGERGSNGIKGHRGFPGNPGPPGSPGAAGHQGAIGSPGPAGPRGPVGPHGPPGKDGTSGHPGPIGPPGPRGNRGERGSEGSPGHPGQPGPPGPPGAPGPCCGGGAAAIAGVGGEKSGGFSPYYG
Assay: In vivo MRI of the aortic wall in a murine model of vascular remodelling
Settings: ApoE−/− mice after aortic injury and 12 weeks high-fat diet, i.v. 0.2 mmol/kg, LGE MRI at 3 T up to 2 h post-injection
From the text: Male ApoE^−/− mice were bred in-house and underwent surgery at 8–10 weeks of age (n = 6). Mice were anesthetised with 4% isoflurane mixed with 1% medical oxygen and anaesthesia was maintained at 2% during the surgery as previously reported. Briefly, mice underwent a laparotomy to expose the abdominal aorta, renal and iliac arteries. Two ligatures were inserted around the aorta (surgical silk, size 4–0, Aragó, Zaragoza, Spain), the first below the renal arteries and the second above the iliac bifurcation. A 30 G needle was introduced into the abdominal aorta at the level of the iliac bifurcation, via an aortic puncture. 1 mL of saline was infused into the aorta in three boluses. Finally, the needle was removed, and the puncture was repaired. The muscle and skin incisions were sutured (5-0 Vicryl, Ethicon Inc, Somerville, NJ), and the animals were allowed to recover. Mice were switched to a high-fat diet (HFD) containing 21% fat from lard and 0.15% (wt/wt) cholesterol (Special Diets Services, Witham, United Kingdom), on day 2 post-surgery for 12 weeks prior to the imaging experiments.
Anaesthesia was induced with 4% and maintained with 1–2% isoflurane during the MRI experiments. Mice (n = 3 per group) were placed supine on a single-loop surface coil (diameter = 47 mm) and the abdominal aorta was imaged up to 2 h post-injection of the monomeric (i.v. 0.2 mmol/kg, 0.2 mmol/kg Gd), the next day with the corresponding tetrameric collagen-binding probe (i.v 0.2 mmol/kg, 0.8 mmol/kg Gd) and the 3rd day using the scrambled probes (n = 2–3 per probe; i.v. 0.2 mmol/kg). This timeline ensures complete washout of one probe from the tissue before the administration of another probe. […]

Substance	signal enhancement of the remodelled aortic wall (in words)
Ac-C-RDKKVAEQS [[Gd-DOTAMA]4-SccCBP1, scrambled tetrameric Gd probe (Ac-C-…), negative control]	No signal enhancement
Ac-C-TEFPLRMRDWLKN [[Gd-DOTAMA]4-CBP2, tetrameric probe: tri-lysine scaffold bearing four Gd-DOTAMA units conjugated at the N-terminus of CBP2]	stronger enhancement at 60 min compared with corresponding monomeric probes
